Data from ChEMBL document CHEMBL1142835, “(S,E)-N-[1-(3-heteroarylphenyl)ethyl]-3-(2-fluorophenyl)acrylamides: synthesis and KCNQ2 potassium channel opener activity” (Bioorg Med Chem Lett, 2005).

Experiments:
[1] = molecular target: Potassium voltage-gated channel subfamily KQT member 2 (Mus musculus, UniProt Q9Z351); assay: Effect on outward potassium currents in whole-cell patch clamp assay of HEK 293 cells expressing cloned mouse KCNQ2 channel at -40 mV; format: functional, cell-based, HEK293
[2] = molecular target: Potassium voltage-gated channel subfamily KQT member 2 (Mus musculus) (UniProt Q9Z351); assay: Relative efficacy as ratio of maximal current amplitudes for compound and reference; format: functional
Chain of Potassium voltage-gated channel subfamily KQT member 2 (Mus musculus) (Q9Z351 whole entry): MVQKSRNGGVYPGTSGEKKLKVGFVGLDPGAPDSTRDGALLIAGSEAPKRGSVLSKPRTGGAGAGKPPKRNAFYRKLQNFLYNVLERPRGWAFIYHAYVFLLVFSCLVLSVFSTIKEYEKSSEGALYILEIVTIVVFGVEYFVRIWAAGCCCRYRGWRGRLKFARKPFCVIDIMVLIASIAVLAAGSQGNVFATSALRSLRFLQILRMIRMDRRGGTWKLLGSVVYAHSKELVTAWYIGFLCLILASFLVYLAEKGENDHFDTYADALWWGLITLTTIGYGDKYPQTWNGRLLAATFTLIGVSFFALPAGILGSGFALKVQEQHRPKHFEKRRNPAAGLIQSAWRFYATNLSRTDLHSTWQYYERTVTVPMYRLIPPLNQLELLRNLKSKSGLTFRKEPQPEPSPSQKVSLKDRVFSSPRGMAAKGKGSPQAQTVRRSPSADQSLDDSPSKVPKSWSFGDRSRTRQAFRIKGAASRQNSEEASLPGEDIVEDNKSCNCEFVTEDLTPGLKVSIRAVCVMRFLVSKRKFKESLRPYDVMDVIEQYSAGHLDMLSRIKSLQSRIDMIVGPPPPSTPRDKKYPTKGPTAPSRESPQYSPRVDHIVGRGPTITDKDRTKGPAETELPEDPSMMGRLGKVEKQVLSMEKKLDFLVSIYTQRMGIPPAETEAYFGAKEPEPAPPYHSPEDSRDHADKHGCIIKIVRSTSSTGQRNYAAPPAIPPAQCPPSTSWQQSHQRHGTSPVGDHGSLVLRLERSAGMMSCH

Chain of Potassium voltage-gated channel subfamily KQT member 2 (Q9Z351 whole entry): as above

Structure (SMILES)	EC50 [1] [nM]	E/Eref [2]
C[C@H](NC(=O)/C=C/c1ccccc1F)c1cccc(-c2ccc(F)nc2)c1	10	0.85
CCOC(=O)Nc1ccc(NCc2ccc(F)cc2)cc1N		1.6
C[C@H](NC(=O)/C=C/c1ccccc1F)c1ccc2c(c1)N(CC1CC1)CCO2		1.83
C[C@H](NC(=O)/C=C/c1ccccc1)c1cccc(-n2cccn2)c1	1200	1.9
C[C@H](NC(=O)/C=C/c1ccccc1)c1cccc(N2CCOCC2)c1	3200	1.4
C[C@H](NC(=O)/C=C/c1ccccc1F)c1cccc(-c2cnccn2)c1	370	1.57
C[C@H](NC(=O)/C=C/c1ccccc1Cl)c1ccc2c(c1)OCO2	20	1.1
C[C@H](NC(=O)/C=C/c1ccccc1F)c1cccc(-n2cncn2)c1	330	1.2
C[C@H](NC(=O)/C=C/c1ccccc1F)c1cccc(-c2ccccn2)c1	1200	1.8
C[C@H](NC(=O)/C=C/c1ccccc1F)c1cccc(-n2cccn2)c1	120	1.6
